Results on one molecule are retold here after article PMC9570594, “Development of Novel Pyridine-Thiazole Hybrid Molecules as Potential Anticancer Agents” (Molecules, 2022).

The test system of test [1] is LOX IMVI (Melanoma). Nature of the test: NCI five-dose SRB assay. The test is classed as cell-based. Conditions: Homo sapiens, 48 h. For orientation: The SRB assay estimates cell density from bound dye.
Test [2] has as its system TK-10 (Renal Cancer). Nature of the test: NCI five-dose SRB assay. The test is classed as cell-based. Conditions: Homo sapiens, 48 h.
Test [3] has as its system IGROV-1 (Ovarian Cancer). Nature of the test: NCI five-dose SRB assay. It is filed as cell-based. Conditions: Homo sapiens, 48 h.
The test system of test [4] is SK Mel-2 (Melanoma). Nature of the test: NCI one-dose SRB assay. Conditions: 10 μM, 48 h.
The subject of test [5] is OVCAR-4 (Ovarian Cancer). Nature of the test: NCI five-dose SRB assay. The note with it: Homo sapiens, 48 h. The test is classed as cell-based.
Test [6] has as its system full panel of human tumor cell lines (MG_MID). Nature of the test: NCI five-dose SRB assay, full panel. It is filed as cell-based. As for the experimental part:
Using absorbance measurements [time zero (Tz), control growth in the absence of drug (C), and test growth in the presence of drug (Ti)], the percentage growth was calculated for each drug concentration. Percentage growth inhibition was calculated as:
Dose response parameters (GI50, TGI, LC50) were calculated for each compound. […] The drug concentration resulting in total growth inhibition (TGI) was calculated from Ti = Tz. […] Values were calculated for each of these parameters if the level of activity was reached; however, if the effect was not reached or was excessive, the value for that parameter was expressed as more or less than the maximum or minimum concentration tested.

Where two headings read alike, the source gives them in different places. A value given as a limit tells only on which side of the number the result lay.

By TGI is commonly meant the concentration giving total growth inhibition. A low value points to more potent growth arrest.

Consider `CCOC(=O)c1ccc(NC(=O)CSC(CC(=O)c2sc(Nc3ccccn3)nc2C)c2ccccc2F)cc1` (stereo not drawn) [Compound 4, Ethyl 4-[[2-[1-(2-Fluorophenyl)-3-[4-methyl-2-(2-pyridylamino)thiazol-5-yl]-3-oxopropyl]sulfanylacetyl]amino]benzoate], for which the GI50 in test [1] was 0.312 µM; in test [2], 82.3 µM; in test [3], 12.1 µM; in test [5], 66.1 µM; in test [6] (Homo sapiens, RPMI-8226, NCI-H226, SNB-75, SF 539, M14, MDA-MB-435, UO-31, RXF 393, MDA-MB-468, read-out: active concentration range (GI50) towards most sensitive lines), 2.52 to 8.29 µM; in test [6] (Homo sapiens, full panel MG_MID (average GI50), 48 h, read-out: GI50), 31.7 µM. Further, the Growth % in test [4] was −31.22%. The same molecule yielded an LC50 (concentration giving 50% net tumour cell kill) in test [6] (Homo sapiens, full panel, mainly) of over 100 µM. In test [6] (full panel, mainly), this molecule returned a TGI of over 100 µM.
